The assay deals with MV-4-11 cells. Kind of assay: Gene expression microarray analysis (Affymetrix PrimeView) and GSEA. The format is cell-based, human. Set-up: RFU PODN (11730768_x_at) / Fold change /veh PODN (11730768_x_at) / RFU LINC00158 (11744669_a_at) / Fold change /veh LINC00158 (11744669_a_at) / RFU DUSP10 (11751237_a_at) / Fold change /veh DUSP10 (11751237_a_at) / RFU ID3 (11757404_x_at) / Fold change /veh ID3 (11757404_x_at) / RFU PLEKHG5 (11737974_s_at) / Fold change /veh PLEKHG5 (11737974_s_at) / RFU LRRC4B (11730491_at) / Fold change /veh LRRC4B (11730491_at) / RFU GIMAP4 (11747438_a_at) / Fold change /veh GIMAP4 (11747438_a_at) / RFU KRT8 (11758183_x_at) / Fold change /veh KRT8 (11758183_x_at) / RFU CNN1 (11734310_a_at) / Fold change /veh CNN1 (11734310_a_at) / RFU VPS37D (11726825_at) / Fold change /veh VPS37D (11726825_at) / RFU C10orf10 (11716522_x_at) / Fold change /veh C10orf10 (11716522_x_at) / RFU KIR2DL2 /// KIR2DL4 /// KIR2DL5A /// KIR2DL5B /// KIR2DS1 /// KIR2DS2 /// KIR2DS3 /// KIR2DS4 /// KIR3DL3 /// KIR3DL3 /// KIR3DS1 (11738374_at) / Fold change /veh KIR2DL2 /// KIR2DL4 /// KIR2DL5A /// KIR2DL5B /// KIR2DS1 /// KIR2DS2 /// KIR2DS3 /// KIR2DS4 /// KIR3DL3 /// KIR3DL3 /// KIR3DS1 (11738374_at) / RFU C1QL1 (11718748_at) / Fold change /veh C1QL1 (11718748_at) / RFU TMPRSS4 (11747572_a_at) / Fold change /veh TMPRSS4 (11747572_a_at) / RFU HAMP (11756126_x_at) / Fold change /veh HAMP (11756126_x_at) / RFU RNFT2 (11725882_a_at) / Fold change /veh RNFT2 (11725882_a_at) / RFU NR4A2 (11747474_a_at) / Fold change /veh NR4A2 (11747474_a_at) / RFU ABCC12 (11746883_a_at) / Fold change /veh ABCC12 (11746883_a_at) / RFU TMEM136 (11760407_x_at) / Fold change /veh TMEM136 (11760407_x_at) / RFU CLDN22 /// WWC2 (11732394_at) / Fold change /veh CLDN22 /// WWC2 (11732394_at) / RFU HLA-DPB1 (11760878_x_at) / Fold change /veh HLA-DPB1 (11760878_x_at) / RFU SPINT1 (11716480_a_at) / Fold change /veh SPINT1 (11716480_a_at) / RFU GAP43 (11754022_s_at) / Fold change /veh GAP43 (11754022_s_at) / RFU A4GNT (11735810_at) / Fold change /veh A4GNT (11735810_at) / RFU PRB3 (11715151_x_at) / Fold change /veh PRB3 (11715151_x_at) / RFU TUBB4B (11761932_at) / Fold change /veh TUBB4B (11761932_at) / RFU CAPN14 (11732068_a_at) / Fold change /veh CAPN14 (11732068_a_at) / RFU TMCC2 (11721928_a_at) / Fold change /veh TMCC2 (11721928_a_at) / RFU IRGQ (11745062_a_at) / Fold change /veh IRGQ (11745062_a_at) / RFU FAM174B (11720279_a_at) / Fold change /veh FAM174B (11720279_a_at) / RFU TMPRSS4 (11748680_a_at) / Fold change /veh TMPRSS4 (11748680_a_at) / RFU FAM212B (11763350_a_at) / Fold change /veh FAM212B (11763350_a_at) / RFU PLEKHG5 (11743358_a_at) / Fold change /veh PLEKHG5 (11743358_a_at) / RFU ZSCAN30 (11745921_a_at) / Fold change /veh ZSCAN30 (11745921_a_at) / RFU CMKLR1 (11741424_a_at) / Fold change /veh CMKLR1 (11741424_a_at) / RFU LOC101060620 /// MAPK8IP1 (11723275_at) / Fold change /veh LOC101060620 /// MAPK8IP1 (11723275_at) / RFU SPTSSB (11747773_x_at) / Fold change /veh SPTSSB (11747773_x_at) / RFU PRSS12 (11739890_at) / Fold change /veh PRSS12 (11739890_at) / RFU BIN1 (11741810_x_at) / Fold change /veh BIN1 (11741810_x_at) / RFU WNT11 (11732464_a_at) / Fold change /veh WNT11 (11732464_a_at) / RFU C10orf10 (11716521_a_at) / Fold change /veh C10orf10 (11716521_a_at) / RFU C5orf56 (11738089_at) / Fold change /veh C5orf56 (11738089_at) / RFU CYB561 (11721691_x_at) / Fold change /veh CYB561 (11721691_x_at) / RFU ANKRD19P (11752326_a_at) / Fold change /veh ANKRD19P (11752326_a_at) / RFU OR2T12 /// OR2T33 /// OR2T8 (11738714_s_at) / Fold change /veh OR2T12 /// OR2T33 /// OR2T8 (11738714_s_at) / RFU VCAN (11748164_a_at) / Fold change /veh VCAN (11748164_a_at) / RFU JSRP1 (11732532_at) / Fold change /veh JSRP1 (11732532_at) / RFU KRTAP10-11 (11738290_x_at) / Fold change /veh KRTAP10-11 (11738290_x_at) / RFU MYO3A (11730013_a_at) / Fold change /veh MYO3A (11730013_a_at) / RFU EBF3 (11725865_a_at) / Fold change /veh EBF3 (11725865_a_at) / RFU CAMK2N1 (11719241_x_at) / Fold change /veh CAMK2N1 (11719241_x_at) / RFU C5orf56 (11738088_a_at) / Fold change /veh C5orf56 (11738088_a_at) / RFU OLFML3 (11715873_a_at) / Fold change /veh OLFML3 (11715873_a_at) / RFU LOC100653217 /// NTM (11731650_a_at) / Fold change /veh LOC100653217 /// NTM (11731650_a_at) / RFU MAPK11 (11762145_a_at) / Fold change /veh MAPK11 (11762145_a_at) / RFU FIZ1 (11724087_x_at) / Fold change /veh FIZ1 (11724087_x_at) / RFU OASL (11726364_x_at) / Fold change /veh OASL (11726364_x_at) / RFU SOX15 (11748057_x_at) / Fold change /veh SOX15 (11748057_x_at) / RFU CD79A (11719716_a_at) / Fold change /veh CD79A (11719716_a_at) / RFU HIST1H1D (11736915_at) / Fold change /veh HIST1H1D (11736915_at) / RFU CASKIN2 (11723855_a_at) / Fold change /veh CASKIN2 (11723855_a_at) / RFU LOC730098 (11760151_x_at) / Fold change /veh LOC730098 (11760151_x_at) / RFU OR4N2 (11742367_at) / Fold change /veh OR4N2 (11742367_at) / RFU PRRT2 (11749266_a_at) / Fold change /veh PRRT2 (11749266_a_at) / RFU SNX32 (11753110_a_at) / Fold change /veh SNX32 (11753110_a_at) / RFU CDHR5 (11726645_a_at) / Fold change /veh CDHR5 (11726645_a_at) / RFU RCAN1 (11760418_a_at) / Fold change /veh RCAN1 (11760418_a_at) / RFU FAM167A (11723789_a_at) / Fold change /veh FAM167A (11723789_a_at) / RFU FAM26E (11764081_at) / Fold change /veh FAM26E (11764081_at) / RFU ISYNA1 (11749810_s_at) / Fold change /veh ISYNA1 (11749810_s_at) / RFU ACY1 (11761880_at) / Fold change /veh ACY1 (11761880_at) / RFU 11764098_at / Fold change /veh 11764098_at / RFU SAMD14 (11745864_x_at) / Fold change /veh SAMD14 (11745864_x_at) / RFU NPB (11741838_a_at) / Fold change /veh NPB (11741838_a_at) / RFU TMPRSS6 (11731388_a_at) / Fold change /veh TMPRSS6 (11731388_a_at) / RFU KRTAP10-2 (11738614_at) / Fold change /veh KRTAP10-2 (11738614_at) / RFU ARHGAP8 /// PRR5-ARHGAP8 (11727945_x_at) / Fold change /veh ARHGAP8 /// PRR5-ARHGAP8 (11727945_x_at) / RFU KRTAP5-7 /// NADSYN1 (11734609_at) / Fold change /veh KRTAP5-7 /// NADSYN1 (11734609_at) / RFU RASL12 (11751679_a_at) / Fold change /veh RASL12 (11751679_a_at) / RFU CDKN2B (11736163_a_at) / Fold change /veh CDKN2B (11736163_a_at) / RFU PRF1 (11729649_at) / Fold change /veh PRF1 (11729649_at) / RFU, ZNF638 /// ZNF638-IT1 / Fold change vs veh, ZNF638 /// ZNF638-IT1 / RFU, PANK3 / Fold change vs veh, PANK3 / RFU, SH3YL1 / Fold change vs veh, SH3YL1 / RFU, ZEB2 / Fold change vs veh, ZEB2 / RFU, NRIP1 / Fold change vs veh, NRIP1 / RFU, PTTG1IP / Fold change vs veh, PTTG1IP / RFU, CAPN2 / Fold change vs veh, CAPN2 / RFU, MED14 / Fold change vs veh, MED14 / RFU, SNORA58 / Fold change vs veh, SNORA58 / RFU, C1orf63 / Fold change vs veh, C1orf63 / RFU, LRRFIP1 / Fold change vs veh, LRRFIP1 / RFU, NDUFAF7 / Fold change vs veh, NDUFAF7 / RFU, SLC12A2 / Fold change vs veh, SLC12A2 / RFU, IBTK / Fold change vs veh, IBTK / RFU, ESF1 / Fold change vs veh, ESF1 / Fold change vs veh, TMEM50B / RFU, TAOK1 / Fold change vs veh, TAOK1 / RFU, ACBD3 / Fold change vs veh, ACBD3 / RFU, TMA16 / Fold change vs veh, TMA16 / RFU, RWDD3 / Fold change vs veh, RWDD3 / RFU, BCAT1 / Fold change vs veh, BCAT1 / RFU, EDEM3 / Fold change vs veh, EDEM3 / RFU, TMEM33 / Fold change vs veh, TMEM33 / RFU, WDR75 / Fold change vs veh, WDR75 / RFU, AHCTF1 / Fold change vs veh, AHCTF1 / RFU, TFRC / Fold change vs veh, TFRC / RFU, ZDHHC17 / Fold change vs veh, ZDHHC17 / RFU, NOM1 / Fold change vs veh, NOM1 / RFU, ARL8B / Fold change vs veh, ARL8B / RFU, ZBTB11 / Fold change vs veh, ZBTB11 / RFU, TAMM41 / Fold change vs veh, TAMM41 / RFU, KIAA1704 /// LOC100996395 / Fold change vs veh, KIAA1704 /// LOC100996395 / RFU, ING1 / Fold change vs veh, ING1 / RFU, TRMT61B / Fold change vs veh, TRMT61B / RFU, FUBP3 / Fold change vs veh, FUBP3 / RFU, TP53 / Fold change vs veh, TP53 / RFU, TNKS2 / Fold change vs veh, TNKS2 / RFU, ZFP14 / Fold change vs veh, ZFP14 / RFU, ACTR2 / Fold change vs veh, ACTR2 / RFU, PPP3R1 / Fold change vs veh, PPP3R1 / RFU, PIK3R1 / Fold change vs veh, PIK3R1 / RFU, HNRNPA1 / Fold change vs veh, HNRNPA1 / RFU, RNF170 / Fold change vs veh, RNF170 / RFU, ZNF28 / Fold change vs veh, ZNF28 / RFU, RNGTT / Fold change vs veh, RNGTT / RFU, OGT / Fold change vs veh, OGT / RFU, BRD1 / Fold change vs veh, BRD1 / RFU, MARS / Fold change vs veh, MARS / RFU, ZNF655 / Fold change vs veh, ZNF655 / RFU, FAHD1 / Fold change vs veh, FAHD1 / RFU, BDP1 / Fold change vs veh, BDP1 / RFU, LRRCC1 / Fold change vs veh, LRRCC1 / RFU, ARID1A / Fold change vs veh, ARID1A / RFU, ZNF146 / Fold change vs veh, ZNF146 / RFU, ZNF330 / Fold change vs veh, ZNF330 / RFU, GPN3 / Fold change vs veh, GPN3 / RFU, C9orf123 / Fold change vs veh, C9orf123 / RFU, N4BP2L2 / Fold change vs veh, N4BP2L2 / RFU, ARFIP1 / Fold change vs veh, ARFIP1 / RFU, FAM179B / Fold change vs veh, FAM179B / RFU, BCL10 / Fold change vs veh, BCL10 / RFU, UHRF1BP1L / Fold change vs veh, UHRF1BP1L / RFU, BET1 / Fold change vs veh, BET1 / RFU, CNOT2 / Fold change vs veh, CNOT2 / RFU, ZNF268 / Fold change vs veh, ZNF268 / Fold change vs veh, ZNF507 / RFU, DGCR2 / Fold change vs veh, DGCR2 / RFU, WDSUB1 / Fold change vs veh, WDSUB1 / Fold change vs veh, HSP90B1 /// MIR3652 / RFU, ADSS / Fold change vs veh, ADSS / RFU, GK / Fold change vs veh, GK / RFU, ZNF148 / Fold change vs veh, ZNF148 / RFU, TAF9 / Fold change vs veh, TAF9 / RFU, SLC1A5 / Fold change vs veh, SLC1A5 / RFU, SLMO2 / Fold change vs veh, SLMO2 / RFU, ABCC4 / Fold change vs veh, ABCC4 / RFU, LOC101060439 /// RAP1B / Fold change vs veh, LOC101060439 /// RAP1B / RFU, RFX7 / Fold change vs veh, RFX7 / RFU, GTPBP10 / Fold change vs veh, GTPBP10 / RFU, CNEP1R1 / Fold change vs veh, CNEP1R1 / RFU, BIVM-ERCC5 /// ERCC5 / Fold change vs veh, BIVM-ERCC5 /// ERCC5 / RFU, ILF3 / Fold change vs veh, ILF3 / RFU 11762660_at / Fold change /veh 11762660_at / RFU VCAN (11757783_s_at) / Fold change /veh VCAN (11757783_s_at) / RFU DDX43 (11728927_at) / Fold change /veh DDX43 (11728927_at) / RFU KRT8 (11758188_x_at) / Fold change /veh KRT8 (11758188_x_at) / RFU NKD1 (11759106_at) / Fold change /veh NKD1 (11759106_at) / RFU SRD5A1 (11742802_a_at) / Fold change /veh SRD5A1 (11742802_a_at) / RFU TPSAB1 /// TPSB2 (11721975_s_at) / Fold change /veh TPSAB1 /// TPSB2 (11721975_s_at) / RFU GSTM3 (11746129_a_at) / Fold change /veh GSTM3 (11746129_a_at) / RFU IL23R (11737362_x_at) / Fold change /veh IL23R (11737362_x_at) / RFU TMEM51 (11727254_a_at) / Fold change /veh TMEM51 (11727254_a_at) / RFU PIWIL2 (11732686_x_at) / Fold change /veh PIWIL2 (11732686_x_at) / RFU ORM1 (11744905_x_at) / Fold change /veh ORM1 (11744905_x_at) / RFU CCDC152 (11743942_at) / Fold change /veh CCDC152 (11743942_at) / RFU ECM1 (11717891_a_at) / Fold change /veh ECM1 (11717891_a_at) / RFU IL23R (11748794_a_at) / Fold change /veh IL23R (11748794_a_at) / RFU TNFAIP8L3 (11732012_x_at) / Fold change /veh TNFAIP8L3 (11732012_x_at) / RFU MBOAT4 (11741988_at) / Fold change /veh MBOAT4 (11741988_at) / RFU 11764193_at / Fold change /veh 11764193_at / RFU TMEM53 (11763286_at) / Fold change /veh TMEM53 (11763286_at) / RFU MAGEB2 (11727129_at) / Fold change /veh MAGEB2 (11727129_at) / RFU TMEM200A (11744735_a_at) / Fold change /veh TMEM200A (11744735_a_at) / RFU CCDC152 (11751479_a_at) / Fold change /veh CCDC152 (11751479_a_at) / RFU FAM211A (11726209_a_at) / Fold change /veh FAM211A (11726209_a_at) / RFU RGS16 (11746705_a_at) / Fold change /veh RGS16 (11746705_a_at) / RFU VCAN (11755009_s_at) / Fold change /veh VCAN (11755009_s_at) / RFU RHOB (11743442_s_at) / Fold change /veh RHOB (11743442_s_at) / RFU RGS16 (11720943_a_at) / Fold change /veh RGS16 (11720943_a_at) / RFU RGS16 (11720944_at) / Fold change /veh RGS16 (11720944_at) / RFU, VPS4B / Fold change vs veh, VPS4B / RFU, CREB1 / Fold change vs veh, CREB1 / RFU, DNAJC13 / Fold change vs veh, DNAJC13 / RFU, GNAQ / Fold change vs veh, GNAQ / RFU, CDK5R1 / Fold change vs veh, CDK5R1 / RFU, ZRANB3 / Fold change vs veh, ZRANB3 / RFU, CUL4A / Fold change vs veh, CUL4A / RFU, CCNY / Fold change vs veh, CCNY / RFU, UFL1 / Fold change vs veh, UFL1 / RFU, COG3 / Fold change vs veh, COG3 / RFU, DIAPH2 / Fold change vs veh, DIAPH2 / RFU, SKA2 / Fold change vs veh, SKA2 / RFU, AFF3 / Fold change vs veh, AFF3 / RFU, LMF1 / Fold change vs veh, LMF1 / RFU, IPO11 / Fold change vs veh, IPO11 / RFU, DFFB / Fold change vs veh, DFFB / RFU, FOXP1 / Fold change vs veh, FOXP1 / RFU, CARD8 / Fold change vs veh, CARD8 / RFU, STRN3 / Fold change vs veh, STRN3 / RFU, ADK / Fold change vs veh, ADK / RFU, RASSF2 / Fold change vs veh, RASSF2 / RFU, WIPF1 / Fold change vs veh, WIPF1 / RFU, LARP1B / Fold change vs veh, LARP1B / RFU, RASA1 / Fold change vs veh, RASA1 / RFU, RB1 / Fold change vs veh, RB1 / RFU, PPFIA1 / Fold change vs veh, PPFIA1 / RFU, MAT2A / Fold change vs veh, MAT2A / RFU, CCT5 / Fold change vs veh, CCT5 / RFU, WDR92 / Fold change vs veh, WDR92 / RFU, CUX1 / Fold change vs veh, CUX1 / RFU, TTC7A / Fold change vs veh, TTC7A / RFU, TMEM135 / Fold change vs veh, TMEM135 / RFU, DEPTOR / Fold change vs veh, DEPTOR / RFU, CPM / Fold change vs veh, CPM / RFU, DNAJB6 / Fold change vs veh, DNAJB6 / RFU, CACNA2D3 / Fold change vs veh, CACNA2D3 / RFU, DTX4 / Fold change vs veh, DTX4 / RFU, TFCP2 / Fold change vs veh, TFCP2 / RFU, GMCL1 /// GMCL1P1 / Fold change vs veh, GMCL1 /// GMCL1P1 / RFU, AEBP2 / Fold change vs veh, AEBP2 / RFU, SNHG1 /// SNORD22 /// SNORD25 /// SNORD26 /// SNORD27 /// SNORD28 /// SNORD29 /// SNORD31 / Fold change vs veh, SNHG1 /// SNORD22 /// SNORD25 /// SNORD26 /// SNORD27 /// SNORD28 /// SNORD29 /// SNORD31 / Fold change (Aza/veh), C12orf56 (ProbeSet 11735607_a_at) / Fold change (ACY-1035/veh), C12orf56 (ProbeSet 11735607_a_at) / Fold change (Aza/veh), FGFR1OP (ProbeSet 11751329_s_at) / Fold change (ACY-1035/veh), FGFR1OP (ProbeSet 11751329_s_at) / Fold change (Aza/veh), VPS36 (ProbeSet 11739960_a_at) / Fold change (ACY-1035/veh), VPS36 (ProbeSet 11739960_a_at) / RFU SYPL1 (11715823_x_at) / Fold change /veh SYPL1 (11715823_x_at) / RFU IGFBP7 (11715501_s_at) / Fold change /veh IGFBP7 (11715501_s_at) / RFU REEP3 (11722064_at) / Fold change /veh REEP3 (11722064_at) / RFU IGLL1 (11728026_x_at) / Fold change /veh IGLL1 (11728026_x_at): dose or concentration left out as unconfirmed. The following applies: ProbeSet 11717914_a_at; LIST B.

With `Nc1ncn([C@@H]2O[C@H](CO)[C@@H](O)[C@H]2O)c(=O)n1` [azacitidine], the “RFU, BIVM-ERCC5 /// ERCC5” value is on record as 162.65 RFU.
